# Assay results published in patent US11273217B2, “Cancer treatment composition combining anti-CD26 antibody and other anticancer agent” (Y's AC Co., Ltd., priority 2015, dated 2022).
# Where two headings read alike, the source gives them in different places.
# Legend:
# Type in all cases: cell-based
# [1] = test system: MSTO-wt (CD26-negative malignant mesothelioma cell line MSTO-211H); assay: WST-1 cytotoxicity assay, MSTO wt; settings: 48 hours
# Source text: (§1) A CD26-negative malignant mesothelioma cell line MSTO-211H (MSTO) (American Type Cell Culture Collection, Manassas, Va.) was transfected with CD26 gene, which was designated as MSTO clone 12 (Aoe K et al., Clin Cancer Res. (2012) 18: 1447-56). A CD26-negative T-cell leukemia cell line Jurkat (American Type Cell Culture Collection, Manassas, Va.) was transfected with CD26 gene, which was designated as Jurkat CD26(+) (Tanaka T et al., Proc Natl Acad Sci USA (1993) 90: 4586-90). A CD26-positive cell line JMN established from malignant mesothelioma was kindly provided by professor Chikao Morimoto, the Institute of Medical Science, the University of Tokyo. All the cell lines were cultured in RPMI medium (catalog No. 11875-093, Life Technologies Corp., Carlsbad, Calif.) containing 10% heat-inactivated fetal bovine serum (FBS, Life Technologies Corp., Carlsbad, Calif.), ABPC (100 μg/ml), and streptomycin (100 μg/ml) at 37° C. under 5% CO2 environment.
# (§2) WST-1 assay was conducted according to the manual provided by the manufacturer. The background absorbance of each sample at 630 nm was subtracted from the measurement value thereof at 450 nm. The experiment was conducted in triplicate, and typical results are shown.
# [2] = test system: Jurkat CD26(−) (T-cell leukemia cell line); assay: WST-1 cytotoxicity assay, Jurkat CD26(−); settings: 48 hours
# Source text: as §1, §2
# [3] = test system: MSTO clone 12 (CD26-positive malignant mesothelioma cell line); assay: WST-1 cytotoxicity assay, MSTO clone 12
# Source text: as §1
# (§3) WST-1 assay was conducted according to the manual provided by the manufacturer. The background absorbance of each sample at 630 nm was subtracted from the measurement value thereof at 450 nm.
# [4] = test system: Jurkat CD26(+) (T-cell leukemia cell line); assay: WST-1 cytotoxicity assay, Jurkat CD26(+); settings: 48 hours
# Source text: as §1, §3
# [5] = test system: JMN (CD26-positive malignant mesothelioma cell line); assay: WST-1 cytotoxicity assay, JMN; settings: 48 hours
# Source text: as §1, §3
# MESO1 cells [6] = assay: Boyden chamber invasion assay, MESO1; settings: 24 hours; for action on cell invasion (in words): cisplatin at 10 and 30 μM, pemetrexed even at 30 μM
# Procedure: (§4) MESO1 cells or H2452 cells (2.5×10^4 cells/well) were inoculated to a Boyden chamber. One hour later, cisplatin (5, 10, or 30 μM) or pemetrexed (1, 10, or 30 μM) was added thereto (n=5), followed by Boyden chamber invasion assay. 24 hours after the cell inoculation, invasive cells were stained with Diff-Quik-staining kit. Significant difference was tested by two-tailed t-test (vs Cont).
# (§5) MESO1 cells or H2452 cells (2.5×10^4 cells/well) were inoculated to a Boyden chamber. One hour later, the combination of cisplatin (0, 3, or 10 μM) and pemetrexed (0, 10, or 30 μM) was added thereto (n=5), followed by Boyden chamber invasion assay. 24 hours after the cell inoculation, invasive cells were stained with Diff-Quik-staining kit. Significant difference was tested by two-tailed t-test (vs Cont).
# as §5, with “MESO1” for “MESO1 cells or H2452”, “YS110” for “pemetrexed”, “20 μg/ml)” for “30 μM)”, “Cont). Next, the interaction of YS110 with cisplatin-pemetrexed concomitant use was studied. The interaction was analyzed by two-way ANOVA.” for “Cont).”
# MESO1 cells [7] = assay: MTT cell growth assay, MESO1; settings: 10^−9 to 10^−4 M; day 2
# Procedure: (§6) MESO1 or H2452 cells (2×10^3 cells/well) were inoculated to a 96-well plate. One hour later, cisplatin or pemetrexed was added thereto at 10^−9, 10^−8, 10^−7, 10^−6, 10^−5, or 10^−4 M (n=6). At day 2, MTT assay was conducted.
# MESO1 cells (2×10^3 cells/well) were inoculated to a 96-well plate. One hour later, the combination of 0.3, 3, or 10 μM cisplatin and 0.1, 3, or 10 μg/ml YS110, or the combination of 0.03, 0.3, or 1 μM pemetrexed and 0.1, 3, or 10 μg/ml YS110 was added thereto. At day 2, MTT assay was conducted. Significant difference was tested by two-tailed t-test (vs Cont).
# (§7) MESO1 cells (2×10^3 cells/well) or H2452 cells (2×10^3 cells/well) were inoculated to a 96-well plate. One hour later, 0.3 μM cisplatin-0.1 μM pemetrexed combination, or YS110 (10 μg/ml) plus the 0.3 μM cisplatin-0.1 μM pemetrexed combination was added thereto (n=6). At day 2, MTT assay was conducted. Significant difference was tested by two-tailed t-test (vs Cont).
# (§8) Gemcitabine was studied for its effect on the growth of a mesothelioma cell line. A mesothelioma cell line MESO1, JMN, H2452, or H226 (2×10^3 cells/well) was inoculated to a 96-well plate. One hour later, gemcitabine (10^−9, 10^−8, 10^−7, 10^−6, 10^−5, or 10^−4 M) was added thereto (N=6). 2 days later, MTT assay was conducted. Significant difference was tested by two-tailed t-test (vs Cont).
# (§9) MESO1 cells (2×10^3 cells/well) were inoculated to a 96-well plate. One hour later, gemcitabine (0, 10^−8, 3×10^−8, or 10^−7 M) and YS110 (0, 1, 3, or 10 μg/ml) were added thereto in combination. At day 2, MTT assay was conducted. Significant difference was tested by two-tailed t-test (vs Cont). Next, interaction in concomitant use of medications was studied (n=6). The interaction between YS110 and gemcitabine used concomitantly was analyzed by two-way ANOVA.
# (§10) MESO1, JMN, H2452 or H226 cells (2×10^3 cells/well were inoculated to a 96-well plate. One hour later, 3×10^−8 M or 10^−7 M gemcitabine was added thereto by concomitant use with the combination of cisplatin (0, 0.1, 0.3, or 1 μM) and pemetrexed (0, 0.03, 0.1, or 0.3 μM) (n=6). At day 2, MTT assay was conducted.
# (§11) The growth inhibitory effects of cisplatin (10^−9 to 10^−4 M) and pemetrexed (10^−9 to 10^−4 M) were compared using the MESO1 and JMN cell lines.
# (§12) The growth inhibitory effect of gemcitabine (10^−9 to 10^−4 M) was compared using MESO1, H2452, JMN, and H226 cell lines.
# H2452 cells [8] = assay: MTT cell growth assay, H2452; settings: 10^−9 to 10^−4 M; day 2
# Procedure: as §6
# H2452 cells (2×10^3 cells/well) were inoculated to a 96-well plate. One hour later, the combination of 0.03, 0.3, or 1 μM cisplatin and 0.1, 3, or 10 μg/ml YS110, or the combination of 0.01, 0.1, or 0.3 μM pemetrexed and 0.1, 3, or 10 μg/ml YS110 was added thereto (n=6). At day 2, MTT assay was conducted. Significant difference was tested by two-tailed t-test (vs Cont).
# as §7, §8
# as §9, with “H2452” for “MESO1”
# as §10, §12
# H2452 cells [9] = assay: Boyden chamber invasion assay, H2452; settings: 24 hours; for action on cell invasion (in words): cisplatin at 10 and 30 μM, pemetrexed even at 30 μM
# Procedure: as §4, §5
# as §5, with “H2452” for “MESO1 cells or H2452”, “YS110” for “pemetrexed”, “20 μg/ml)” for “30 μM)”, “Cont). Next, the interaction of YS110 with cisplatin-pemetrexed concomitant use was studied. The interaction was analyzed by two-way ANOVA.” for “Cont).”
# JMN cells = assay: MTT cell growth assay, JMN; settings: MESO1 (CD9+) vs JMN (CD9−); 10^−9 to 10^−4 M
# Procedure: as §8
# as §9, with “JMN” for “MESO1”, “3×10^−10, 10^−9,” for “10^−8, 3×10^−8,”, “3×10^−8” for “10^−7”
# as §10, §11, §12
# [10] = pemetrexed even at 30 μM with cisplatin 10 μM
molecule,measurement,setting,value
"CC(C)[C@]12O[C@H]1[C@@H]1O[C@@]13C1(C)CCC4=C(COC4=O)[C@@H]1C[C@@H]1O[C@@]13[C@@H]2O (stereo partly drawn) [Triptolide, (3bS,4aS,5aS,6R,6aR,7aS,7bS,8aS,8bS)-6-hydroxy-6a-isopropyl-8b-methyl-3b,4,4a,6,6a,7a,7b,8b,9,10-decahydrotrisoxireno[6,7:8a,9:4b,5]phenanthro[1,2-c]furan-1(3H)-one]",IC50,"[1]; Homo sapiens, MSTO-211H, MSTO wt, CD26 (−)",10 nM
same,cytotoxicity (in words),[1]; MSTO-wt,dose-dependent toxic effect
same,IC50,"[2]; Homo sapiens, Jurkat (−)",> 100 nM
same,cytotoxicity (in words),[2]; Jurkat,dose-dependent toxic effect
same,IC50,"[3]; MSTO clone12, CD26 (+), 48 hours, read-out: IC50",10 nM
same,cytotoxicity (in words),"[3]; MSTO clone 12, 48 hours",dose-dependent toxic effect
same,IC50,"[4]; Homo sapiens, Jurkat CD26 (+)",6 nM
same,cytotoxicity (in words),[4]; Jurkat CD26(+),dose-dependent toxic effect
same,cytotoxicity (in words),[5],dose-dependent toxic effect
same,IC50,[5]; CD26 (+),15 nM
N.N.[Cl][Pt][Cl] [cisplatin],action on cell invasion (in words),MESO1 cells [6],suppressed cell invasion
same,"cell growth, single drug dose-response (in words)",MESO1 cells [7],suppressed the growth
same,"cell growth, single drug dose-response (in words)",H2452 cells [8],suppressed the growth
same,action on cell invasion (in words),H2452 cells [9],suppressed cell invasion
same,growth inhibitory effect compared between MESO1 and JMN,JMN cells,did not differ
Nc1nc2[nH]cc(CCc3ccc(C(=O)N[C@@H](CCC(=O)O)C(=O)O)cc3)c2c(=O)[nH]1 [pemetrexed],action on cell invasion (in words),MESO1 cells [6],no inhibitory action on invasion
same,effect of pemetrexed on the cell invasion inhibitory effect of cisplatin,MESO1 cells [6]; [10],did not potentiate
same,"cell growth, single drug dose-response (in words)",MESO1 cells [7],suppressed the growth
same,"cell growth, single drug dose-response (in words)",H2452 cells [8],suppressed the growth
same,action on cell invasion (in words),H2452 cells [9],no inhibitory action on invasion
same,effect of pemetrexed on the cell invasion inhibitory effect of cisplatin,H2452 cells [9]; [10],did not potentiate
same,growth inhibitory effect compared between MESO1 and JMN,JMN cells,did not differ
Y-TR1 SPDP (conjugate) heavy: EVQLVESGAGVKQPGGTLRLTCTASGFSLTTYGVHWVRQAPGKGLEWVGVIWGDGRTDYDAAFMSRVTISKDTSKSTVYLQMNSLRAEDTAVYYCMRNRHDWFDYWGQGTTVTVSSASTKGPSVFPLAPSSKSTSGGTAALGCLVKDYFPEPVTVSWNSGALTSGVHTFPAVLQSSGKLSSVVTVPSSSLGTQTYICNVNHKPSNTKVDKKVEPKSCDKTHTCPPCPAPELLGGPSVFLFPPKPKDTLMISRTPEVTCVVVDVSHEDPEVKFNWYVDGVEVHNAKTKPREEQYNSTYRVVSVLTVLHQDWLNGKEYKCKVSNKALPAPIEKTISKAKGQPREPQVYTLPPSRDELTKNQVSLTCLVKGFYPSDIAVEWESNGQPENNYKTTPPVLDSDGSFFKKLTVDKSRWQQGNVFSCSVMHEALHNHYTQKSLSLSPGK light: DILLTQSPSSLSATPGERATITCRASQGIRNNLNWYQQKPGQAPRLLIYYSSNLQSGVPSRFSGSGSGTDFTLTISRLQPEDVAAYYCQQSIKLPFTFGSGTKVEIKRTVAAPSVFIFPPSDEQLKSGTASVVCLLNNFYPREAKVQWKVDNALQSGNSQESVTEQDSKDSTYSLSSTLTLSKADYEKHKVYACEVTHQGLSSPVTKSFNRGEC,IC50,"[3]; MSTO clone12, CD26 (+), 48 hours",38 µg/mL
same,IC50,"[3]; Table 5: comparison among 3 types of linkers, MSTO clone 12",35 µg/mL
